Laboratory results: patent US20070142462A1, “Method of Treating Cancer” (The University of Utah, priority 2000, published 2007)

Experiments:
Type in all cases: cell-based, human
[1] = tested on: breast carcinoma MDA-MB-453 cells; experiment: MTT proliferation assay, MDA-MB-453 breast carcinoma; details: Catalase 3000 U/ml; 10% FBS; 72 hours; mean±SE vs control
Description: Measurement of Proliferation in Cell Cultures. […] This assay empirically distinguishes between dead and living cells.
Cell Culture Treatments. The effect of antioxidant treatments on proliferation of malignant cell lines was studied in cultures stimulated with 10% FBS. Cell numbers were quantitated by the MTT assay 24-72 hours later. In some experiments, antioxidants were added immediately after cells were plated. In other experiments, cells were plated and allowed to grow for 24 hours before fresh media with antioxidants was added, and cell numbers were studied by the MTT assay 48 hours later.
Cells stimulated with 10% FBS were plated at a density of 50,000 cells per well. DMSO and antioxidants were added to cell wells at the indicated concentrations. […] Each value represents a mean of at least 4 experiments.

NF-κB [2] = experiment: EMSA of constitutive nuclear NF-κB DNA binding, M1619; details: 24 hours, catalase 3,000 U/ml, NAC 20 mM, Ebselen 25 μM, dicumarol 250 μM
Source text: Electrophoretic Mobility Shift Assays (EMSAs). […] J. Respir.

NF-κB [3] = experiment: EMSA of constitutive nuclear NF-κB DNA binding, M1585; details: M1585 melanoma; catalase 3,000 U/ml for 24 hours
Description: (§1) The effect of antioxidants on nuclear activation of NF-κB was studied by incubating near confluent (70%) cell cultures with antioxidant treatments for 1-48 hours. Nuclear protein was harvested, and EMSAs were performed using DNA consensus binding sequences, or nuclear translocation of the p65 component of NF-κB was studied by immunoperoxidase staining, as outlined below.
(§2) Electrophoretic Mobility Shift Assays (EMSAs). Nuclear protein was isolated and DNA binding reactions were performed as previously described in detail, Kennedy et al., Am. J. Respir. Cell Mol. Biol. 19:366-378 (1998). Monolayers were washed twice in cold DPBS and equilibrated 10 min on ice with 0.7 ml cold cytoplasmic extraction buffer, CEB (10 mM Tris, pH 7.9, 60 mM KCl, 1 mM EDTA, 1 mM DTT) with protease inhibitors, PI (1 mM Pefabloc, 50 μg/ml antipain, 1 μg/ml leupeptin, 1 μg/ml pepstatin, 40 μg/ml bestatin, 3 μg/ml E-64 and 100 μg/ml chymostatin). […] DNA-protein binding reactions were performed with 2 μg of nuclear protein (as determined by the Pierce method) and 30-80,000 cpm of ^32P-end-labelled double-stranded DNA probe in 10 mM Tris-HCl, pH 7.5, 50 mM NaCl, 0.5 mM EDTA, 0.5 mM DTT, 1 mM MgCl2, 50 μg/ml poly dI-dC, and 4% glycerol. […] Gels were dried and analyzed by autoradiography at −80° C. using an image intensifier screen. […]

NF-κB [4] = experiment: EMSA of constitutive nuclear NF-κB DNA binding, LNCaP; details: LNCaP prostate carcinoma; catalase 3,000 U/ml for 24 hours
Description: as §1, §2

NF-κB [5] = experiment: EMSA of constitutive nuclear NF-κB DNA binding, MDA-MB-453; details: MDA-MB-453 breast carcinoma; catalase 3,000 U/ml for 24 hours
Description: as §1, §2

[6] = tested on: phosphorylated IκBα (IκBα-P); experiment: Immunoassay for phosphorylated IκBα; details: M1619; catalase 3,000 U/ml for 24 hours
Description: The effect of antioxidants on expression of cell cyclins, cyclin-associated kinases, cell cycle inhibitors and IκBα was studied by incubating near confluent cell cultures with antioxidant treatments for 15 min-48 hours. Cells were lysed and protein levels were measured by immunoblot assay as described below. In other experiments, the ratio of phosphorylated-IκBα to total IκBα was determined by harvest of cytosolic protein 24 hours after treating cultures with 3,000 U/ml catalase.
The NF-κB inhibitor IκBα and phosphorylated IκBα were assayed with several modifications of the above procedure. Cells were lysed in boiling buffer to which 50 mM DTT had been added as a reducing agent. Immunoassay of IκBα. proceeded as above, but samples for measurement of phosphorylated IκBα were blocked 2 hours at room temperature and incubated overnight at 4° C. with primary phospho-specific antibodies diluted 1:1000 in PBS with 0.1% Tween and 5% BSA.
M1619 cells either treated with catalase with 3,000 U/ml for 24 hours or untreated were used in immunoassays for phosphorylated IκBα (IκBα-P) using phospho-specific antibody as described above.
Mean ratios of the densitometrically determined sum intensities of IκBα-P staining in the immunoassay experiments are shown in FIG. 5B.

Catalase
Percent Growth Inhibition [1]: 49 ± 2
constitutive NF-κB DNA binding activity in nuclear protein (NF-κB [2]): substantially reduced
constitutive nuclear DNA binding activity for NF-κB (NF-κB [3]): suppressed
constitutive nuclear DNA binding activity for NF-κB (NF-κB [4]): suppressed
constitutive nuclear DNA binding activity for NF-κB (NF-κB [5]): suppressed
amount of IκBα that is phosphorylated [6]: decreases
